Assays:
[1] = system: non-cancer cells CHO, COS-1 and NIH-3T3; test: MTT viability, tested non-cancer cells (combination treatment study, FIG. 1B); assay type: cell-based; conditions: 48 h; for toxicity in non-cancer cells: 10 μM (1+10C: 10 μM+10 μM)
Procedure: FIG. 1B: The viability studies of non-cancer cells CHO, COS-1 and NIIH-3T3 after 48 h of continuous treatment with compound 1 (10 μM), 10C [cationic lipid control molecule not containing progesterone moiety]
Cytotoxicity assay of the different compounds were carried out by using 3-(4,5-dimethylthiazol-2-yl)-2,5-diphenyltetrazolium bromide (MTT). For this assay, 12-18 h before treatment cells were plated in 96-well plate at 5000 cells/well density. After incubation cells were treated continuously for 48 h with respective compounds at different concentration (2.5 μM-40 μM). After completion of the treatment, 10 μL of MTT solution (5 mg/mL) was added in each well and incubated for 4 h. Then the media was removed carefully, and the reduced MTT was dissolved in 1:1 (v/v) DMSO/Methanol and absorbance was measured using multimode reader (Synergy H1, BioTek). Results were represented as percentage of viability={[A550(treated cells)−background]/[A550(untreated cells)−background]}×100. The result was summarized and provided as IC50 table in Table 1.
For combination treatment effect, cells were plated in 96 well plates at 5000 cells/well. […] Following 48 h of treatment cell viability was measured following above mentioned MTT study.

T47D (PgR-positive) = test: Cell cycle assay by flow cytometry (PI), T47D; assay type: cell-based, human; conditions: 10 μM, 24 h
Procedure: To measure the cellular DNA content, cell cycle assay was carried out. In this assay, first cells were synchronized at early S-phase by double thymidine blocking. When cell confluency was reached around 25-30% in 60 mm dish, cells were treated with 2 mM thymidine, diluted in 10% FBS containing DMEM, for 18 h to block cells at early S-phase. To release the blocking, media was discarded and washed with 1×PBS. Then the cells were incubated with fresh cell culture media containing 10% FBS for 9 h. After releasing, second blocking was done with 2 mM thymidine containing media for 17 h. After second blocking cells were released by discarding the thymidine supplemented media and kept in fresh media. All the respective treatments for cell cycle study were done after 2 h of second release.
S-phase synchronized cells were either kept untreated or treated with compound 1 (10 μM) and 6c (10 μM) for 24 h. Cells from different treatment groups were harvested, washed with 1×PBS, and fixed with 70% ethanol and kept at −20° C. for overnight. Then the ethanol was removed and washed with 1×PBS. […] After incubation cells were collected by centrifugation, washed with 1×PBS, re-suspended in 500 μL 1×PBS, and data was recorded using flow cytometer (FACS Canto II, Becton-Dickinson, San Jose, Calif., USA) and data were analyzed with FACS Diva software. […]

HUVEC = test: Viability study in HUVEC cell (FIG. 7A); assay type: cell-based, Human; conditions: 48 h
Procedure: 2 μM Doxorubicin (DOX) was taken as positive control. + indicates p<0.01.
T47D, MCF-7, MDA-MB-231 (human breast carcinoma), OVCAR-3 (Human ovary carcinoma), B16F10 (murine melanoma), HUVEC (Human umbilical vein endothelium) cells were purchased from the American Type Cell Culture (ATCC, USA) and CHO (Chinese hamster ovary), NIH-3T3 (murine embryo fibroblast) and COS-1 (Kidney fibroblast) cells were purchased from National Center for Cell Sciences (Pune, India). All cells were grown into mycoplasma free condition. […] All cells were grown up to 75-85% confluency after which cells were trypsinized, counted and seeded, in 96-well plates for cell viability studies, 6-well plates for apoptosis studies, 60 mm dish for cell cycle studies and in 25 cm^2 or 75 cm^2 tissue culture flasks for Western blot studies.
Cytotoxicity assay of the different compounds were carried out by using 3-(4,5-dimethylthiazol-2-yl)-2,5-diphenyltetrazolium bromide (MTT). […] Then the media was removed carefully, and the reduced MTT was dissolved in 1:1 (v/v) DMSO/Methanol and absorbance was measured using multimode reader (Synergy H1, BioTek). […]

[2] = system: PI3K/AKT pathway involving protein in B16F10 cells; test: Western blot of B16F10 cell lysates: PI3K/AKT pathway involving protein (FIG. 4B); assay type: cell-based, murine; conditions: B16F10, 10 μM, 36 h
Procedure: For in vitro cell lysate preparation, B16F10 cells were either treated with compound 1 (10 μM), 6c (10 μM) or kept untreated for 36 h continuously. After that cells were washed with cold PBS for two times, and lysed by incubating for 30 min on ice with ice-cold RIPA lysis buffer (50 mM Tris [pH 7.5], 1% NP-40, 150 mM NaCl, 0.1% sodium dodecyl sulfate [SDS], 0.5% sodium deoxycholate) containing 1% proteinase inhibitor cocktails (PIC) (Cell Signaling Technology). Following 30 min of incubation cells were centrifuged at 14,000 rpm at 4° C. for 15 minutes, supernatant was collected, and Protein concentration was measured by using BCA assay a kit (thermo scientific). For in vivo whole cell lysate, after completion of the in vivo experiment one C57BL/6J mice with representative tumor size from each group was sacrificed and tumor was collected, lysed by ice-cold RIPA buffer with 1% PIC, whole cell lysate was prepared following the same steps as mentioned above. Respective cell lysates were run in SDS-PAGE gel (8%-15%) and then the bands were transferred to polyvinylidene fluoride (PVDF) membrane. Membranes were then first incubated with respective primary antibodies and then with alkaline phosphates conjugated secondary antibody (Goat-anti-rabbit and Goat-anti-mouse). Immunodetection was performed with BCIP/NBT substrate (Sigma-Aldrich).
Cytochrome-C (4272S), BAX (2772S), Bcl-2 (2876S), Cassepase-3 (9665S), β-actin (8457S), PI3K-p110α (4249S), PI3K-p85 (4257S), AKT (272S), p-AKT (4060S), PTEN (9552S), p-mdm2 (3521S), p53 (2524S), GAPDH (5174S) were purchased from Cell Signaling Technology; Casepase-9 (PA5-16358) was purchased from Pierce; mdm2 (ab38618) was purchased from Abcam; secondary antibodies mouse anti-rabbit IgG-PE (sc-3753) was purchased from Santa Cruz Biotechnology; Goat anti-mouse IgG Alkaline Phosphatase (DC05L) and goat anti-rabbit IgG Alkaline Phosphatase (DC06L) were purchased from Calbiochem.

`CC(=O)[C@H]1CC[C@H]2[C@@H]3CCC4=CC(=O)CC[C@]4(C)[C@H]3CC[C@]12C` [Compound 1, Progesterone] was tested, and the “toxicity in non-cancer cells” value [1] was “did not impart any significant toxicity”, the “total cell population in G2/M phase” value (T47D (PgR-positive)) was 10% and the “effect on cell growth” value (HUVEC; 2.5 μM or even 10 μM) was “little to no effect”.
For `CCCCCCCCCC[N+](C)(CCCCCCCCCC)CCNC(=O)CCC(=O)O[C@@H](C)[C@H]1CCC2C3CCC4=CC(=O)CC[C@]4(C)C3CC[C@@]21C` (stereo partly drawn) [Compound 6c, N-decyl-N-(2-(4-((1S)-1-((10R,13S,17S)-10,13-dimethyl-3-oxo-2,3,6,7,8,9,10,11,12,13,14, 15,16,17-tetradecahydro-1H-cyclopenta[a]phenanthren-17-yl)ethoxy)-4-oxobutanamido)ethyl)-N-methyldecan-1-aminium chloride], the “toxicity in non-cancer cells” value [1] was “not in non-cancerous cell”, the “toxicity towards tested non-cancer cells” value ([1]; 2.5 μM-40 μM) was “largely non-toxic” and the “total cell population in G2/M phase” value (T47D (PgR-positive)) was 38%. The PTEN protein expression [2] was “elevated expression”, the “expression of catalytic and regulatory subunit of PI3K protein” value [2] was “decrease in the expression” and the p53 expression level [2] was “elevated the expression level”. The “p-AKT level compared to PR treated group” value [2] was “significant reduction”, the pMdm2 level [2] was “reduced” and the inhibition at 2.5 µM (HUVEC; Homo sapiens, 2.5 μM, read-out: inhibition of cell growth) was 50%.

From US10100079B2, “Progesterone-cationic lipid hybrid as anticancer agent and the process of synthesis thereof” (Council of Scientific & Industrial Research, priority 2016, dated 2018)
